In patent US20260022142A1, “MACROCYCLIC IMMUNOMODULATORS” (Bristol-Myers Squibb Company, priority 2022, published 2026):
One block for each compound: values may come before it. Bridge positions count the residues as written; N and C are the ends. Square brackets hold non-standard residues; d marks the D form. Peptide text beside a SMILES is read from it. * marks the point of attachment. ξ: configuration not given here. Bip = N[C@@H](Cc1ccc(-c2ccccc2)cc1)C(=O)O; Phe(3-Me) = Cc1cccc(C[C@H](N)C(=O)O)c1; hArg = N=C(N)NCCCC[C@H](N)C(=O)O; 4Pal = N[C@@H](Cc1ccncc1)C(=O)O; 3Thi = N[C@@H](Cc1ccsc1)C(=O)O; Cha = N[C@@H](CC1CCCCC1)C(=O)O; Cit = NC(=O)NCCC[C@H](N)C(=O)O; Thr(3ξ) = CC(O)[C@H](N)C(=O)O; Carboxymethyl = O=C(O)C*; Orn = NCCC[C@H](N)C(=O)O; Aun = NCCCCCCCCCCC(=O)O; Dab = NCC[C@H](N)C(=O)O; Dap = NC[C@H](N)C(=O)O; AEEA = NCCOCCOCC(=O)O

Target: T1, PD-1/PD-L1 interaction (PE-labeled human PD-L1-Ig binding to Jurkat cell line over-expressing human PD-1) (Homo sapiens, UniProt Q15116)
T1 construct: expressed in transfected cells; host or cells: Jurkat
T1 sequence (Q15116 25-288): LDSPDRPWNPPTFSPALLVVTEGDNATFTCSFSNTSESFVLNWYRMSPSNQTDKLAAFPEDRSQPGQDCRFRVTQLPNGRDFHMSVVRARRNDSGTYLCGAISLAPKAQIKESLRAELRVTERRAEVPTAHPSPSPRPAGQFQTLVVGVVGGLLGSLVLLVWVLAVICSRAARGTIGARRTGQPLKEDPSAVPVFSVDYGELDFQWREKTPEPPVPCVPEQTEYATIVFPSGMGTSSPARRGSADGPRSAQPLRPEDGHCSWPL
Assay: Jurkat-PD-1 Cell Binding High-Content Screening Assay (CBA)
Type: cell-based
Conditions: Jurkat cell line over-expressing human PD-1; PE-labeled PD-L1-Ig 20 nM final; read-out: Jurkat hPD1-PDL1 IC50
Procedure, shortened: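 Binding of fluorescent PD-L1-Ig (phycoerythrin on Ig tag, 20 nM final, 1 h) measured by high-content imaging of fixed, Hoechst-counterstained Jurkat-hPD-1 cells. Compound added 2 h at 37° C beforehand, in DMEM with 10% fetal calf serum.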

SMILES: CC(C)C[C@H]1NC(=O)[C@H](CCCNC(N)=O)NC(=O)[C@H](C(C)C)NC(=O)[C@H](Cc2ccc(-c3ccccc3)cc2)NC(=O)[C@H](C(C)C)NC(=O)[C@H](Cc2c[nH]c3ccccc23)NC(=O)[C@H](CC(=O)O)NC(=O)[C@H](Cc2ccc(OCC(=O)O)cc2)NC(=O)[C@H](Cc2ccsc2)NC(=O)CSC[C@@H](C(=O)NCCOCCOCC(=O)N[C@@H](CCCN)C(=O)NCCCCCCCCCCC(=O)O)NC(=O)[C@H](C(C)O)NC(=O)[C@H](C(C)C)NC(=O)[C@H](CC2CCCCC2)NC(=O)[C@H](CCN)NC1=O (stereo partly drawn) [Compound 3208] ({CH2CO}-[3Thi]Y(Carboxymethyl)DWV[Bip]V[Cit][dL][Dab][Cha]V[Thr(3ξ)]C[AEEA][Orn][Aun]-OH; thioether N-14)
IC50: 603 nM

SMILES: CC(C)C[C@H]1NC(=O)[C@H](CCN)NC(=O)[C@H](C(C)C)NC(=O)[C@H](Cc2ccc(-c3ccccc3)cc2)NC(=O)[C@H](C(C)C)NC(=O)[C@H](Cc2c[nH]c3ccccc23)NC(=O)[C@H](CC(=O)O)NC(=O)[C@H](Cc2ccc(OCC(=O)O)cc2)NC(=O)[C@H](Cc2ccsc2)NC(=O)CSC[C@@H](C(=O)NCCOCCOCC(=O)N[C@@H](CCCN)C(=O)NCCCCCCCCCCC(=O)O)NC(=O)[C@H](C(C)O)NC(=O)[C@H](C(C)C)NC(=O)[C@H](CC2CCCCC2)NC(=O)[C@H](CCN)NC1=O (stereo partly drawn) [Compound 3210] ({CH2CO}-[3Thi]Y(Carboxymethyl)DWV[Bip]V[Dab][dL][Dab][Cha]V[Thr(3ξ)]C[AEEA][Orn][Aun]-OH; thioether N-14)
IC50: 8 nM

SMILES: CC(C)C[C@H]1NC(=O)[C@H](CCCN)NC(=O)[C@H](C(C)C)NC(=O)[C@H](Cc2ccc(-c3ccccc3)cc2)NC(=O)[C@H](C(C)C)NC(=O)[C@H](Cc2c[nH]c3ccccc23)NC(=O)[C@H](CC(=O)O)NC(=O)[C@H](Cc2ccc(OCC(=O)O)cc2)NC(=O)[C@H](Cc2ccsc2)NC(=O)CSC[C@@H](C(=O)NCCOCCOCC(=O)N[C@@H](CCCN)C(=O)NCCCCCCCCCCC(=O)O)NC(=O)[C@H](C(C)O)NC(=O)[C@H](C(C)C)NC(=O)[C@H](CC2CCCCC2)NC(=O)[C@H](CCN)NC1=O (stereo partly drawn) [Compound 3211] ({CH2CO}-[3Thi]Y(Carboxymethyl)DWV[Bip]V[Orn][dL][Dab][Cha]V[Thr(3ξ)]C[AEEA][Orn][Aun]-OH; thioether N-14)
IC50: 18.3 nM

SMILES: CC(C)C[C@H]1NC(=O)[C@H](CCN)NC(=O)[C@H](C(C)C)NC(=O)[C@H](Cc2ccc(-c3ccccc3)cc2)NC(=O)[C@H](C(C)C)NC(=O)[C@H](Cc2c[nH]c3ccccc23)NC(=O)[C@H](CC(=O)O)NC(=O)[C@H](Cc2ccc(OCC(=O)O)cc2)NC(=O)[C@H](CCCCNC(=N)N)NC(=O)CSC[C@@H](C(=O)NCCOCCOCC(=O)N[C@@H](CCCN)C(=O)NCCCCCCCCCCC(=O)O)NC(=O)[C@H](C(C)O)NC(=O)[C@H](C(C)C)NC(=O)[C@H](CC2CCCCC2)NC(=O)[C@H](CCN)NC1=O (stereo partly drawn) [Compound 3212] ({CH2CO}-[hArg]Y(Carboxymethyl)DWV[Bip]V[Dab][dL][Dab][Cha]V[Thr(3ξ)]C[AEEA][Orn][Aun]-OH; thioether N-14)
IC50: 13.7 nM

SMILES: CC(C)C[C@H]1NC(=O)[C@H](CCCN)NC(=O)[C@H](C(C)C)NC(=O)[C@H](Cc2ccc(-c3ccccc3)cc2)NC(=O)[C@H](C(C)C)NC(=O)[C@H](Cc2c[nH]c3ccccc23)NC(=O)[C@H](CC(=O)O)NC(=O)[C@H](Cc2ccc(OCC(=O)O)cc2)NC(=O)[C@H](CCCCNC(=N)N)NC(=O)CSC[C@@H](C(=O)N[C@@H](CCN)C(=O)NCCOCCOCC(=O)NCCCCCCCCCCC(=O)O)NC(=O)[C@H](CCCNC(N)=O)NC(=O)[C@H](C(C)C)NC(=O)[C@H](CC2CCCCC2)NC(=O)[C@H](CC(N)=O)NC1=O [Compound 3213] ({CH2CO}-[hArg]Y(Carboxymethyl)DWV[Bip]V[Orn][dL]N[Cha]V[Cit]C[Dab][AEEA][Aun]-OH; thioether N-14)
IC50: 13.5 nM

SMILES: CC(C)C[C@H]1NC(=O)[C@H](CCCN)NC(=O)[C@H](C(C)C)NC(=O)[C@H](Cc2ccc(-c3ccccc3)cc2)NC(=O)[C@H](C(C)C)NC(=O)[C@H](Cc2c[nH]c3ccccc23)NC(=O)[C@H](CC(=O)O)NC(=O)[C@H](Cc2ccc(OCC(=O)O)cc2)NC(=O)[C@H](CCCCNC(=N)N)NC(=O)CSC[C@@H](C(=O)N[C@@H](CCN)C(=O)NCCOCCOCC(=O)NCCCCCCCCCCC(=O)O)NC(=O)[C@H](CN)NC(=O)[C@H](C(C)C)NC(=O)[C@H](CC2CCCCC2)NC(=O)[C@H](CC(N)=O)NC1=O [Compound 3214] ({CH2CO}-[hArg]Y(Carboxymethyl)DWV[Bip]V[Orn][dL]N[Cha]V[Dap]C[Dab][AEEA][Aun]-OH; thioether N-14)
IC50: 22.8 nM

SMILES: CC(C)C[C@H]1NC(=O)[C@H](CCCN)NC(=O)[C@H](C(C)C)NC(=O)[C@H](Cc2ccc(-c3ccccc3)cc2)NC(=O)[C@H](C(C)C)NC(=O)[C@H](Cc2c[nH]c3ccccc23)NC(=O)[C@H](CC(=O)O)NC(=O)[C@H](Cc2ccc(OCC(=O)O)cc2)NC(=O)[C@H](CCCCNC(=N)N)NC(=O)CSC[C@@H](C(=O)N[C@@H](CCN)C(=O)NCCOCCOCC(=O)NCCCCCCCCCCC(=O)O)NC(=O)[C@H](CCN)NC(=O)[C@H](C(C)C)NC(=O)[C@H](CC2CCCCC2)NC(=O)[C@H](CC(N)=O)NC1=O [Compound 3215] ({CH2CO}-[hArg]Y(Carboxymethyl)DWV[Bip]V[Orn][dL]N[Cha]V[Dab]C[Dab][AEEA][Aun]-OH; thioether N-14)
IC50: 25.3 nM

SMILES: Cc1cccc(C[C@@H]2NC(=O)[C@H](CC(=O)O)NC(=O)[C@H](Cc3ccc(OCC(=O)O)cc3)NC(=O)[C@H](CCCNC(=N)N)NC(=O)CSC[C@@H](C(=O)N[C@@H](CCCCN)C(=O)NCCCCCCCCCCC(=O)O)NC(=O)[C@H](CCCN)NC(=O)[C@H](C(C)C)NC(=O)[C@H](CC3CCCCC3)NC(=O)[C@H](CCN)NC(=O)[C@@H](CC(C)C)NC(=O)[C@H](CCCN)NC(=O)[C@H](C(C)C)NC(=O)[C@H](Cc3ccc(-c4ccccc4)cc3)NC(=O)[C@H](C(C)C)NC2=O)c1 [Compound 3219] ({CH2CO}-RY(Carboxymethyl)D[Phe(3-Me)]V[Bip]V[Orn][dL][Dab][Cha]V[Orn]CK[Aun]-OH; thioether N-14)
IC50: 9.6 nM

The remaining compounds from weak to strong by IC50, led by results:

IC50: 35.2 nM
SMILES: CC(C)C[C@H]1NC(=O)[C@H](CCCN)NC(=O)[C@H](C(C)C)NC(=O)[C@H](Cc2ccc(-c3ccccc3)cc2)NC(=O)[C@H](C(C)C)NC(=O)[C@H](Cc2c[nH]c3ccccc23)NC(=O)[C@H](CC(=O)O)NC(=O)[C@H](Cc2ccc(OCC(=O)O)cc2)NC(=O)[C@H](CCCCNC(=N)N)NC(=O)CSC[C@@H](C(=O)N[C@@H](CCN)C(=O)NCCOCCOCC(=O)NCCCCCCCCCCC(=O)O)NC(=O)[C@H](CCCN)NC(=O)[C@H](C(C)C)NC(=O)[C@H](CC2CCCCC2)NC(=O)[C@H](CC(N)=O)NC1=O [Compound 3216] ({CH2CO}-[hArg]Y(Carboxymethyl)DWV[Bip]V[Orn][dL]N[Cha]V[Orn]C[Dab][AEEA][Aun]-OH; thioether N-14)

IC50: 26.9 nM
SMILES: CC(C)C[C@H]1NC(=O)[C@H](CCCN)NC(=O)[C@H](C(C)C)NC(=O)[C@H](Cc2ccc(-c3ccccc3)cc2)NC(=O)[C@H](C(C)C)NC(=O)[C@H](Cc2c[nH]c3ccccc23)NC(=O)[C@H](CC(=O)O)NC(=O)[C@H](Cc2ccc(OCC(=O)O)cc2)NC(=O)[C@H](CCCCNC(=N)N)NC(=O)CSC[C@@H](C(=O)N[C@@H](CCCNC(N)=O)C(=O)NCCOCCOCC(=O)NCCCCCCCCCCC(=O)O)NC(=O)[C@H](CCCN)NC(=O)[C@H](C(C)C)NC(=O)[C@H](CC2CCCCC2)NC(=O)[C@H](CC(N)=O)NC1=O [Compound 3218] ({CH2CO}-[hArg]Y(Carboxymethyl)DWV[Bip]V[Orn][dL]N[Cha]V[Orn]C[Cit][AEEA][Aun]-OH; thioether N-14)

IC50: 17.9 nM
SMILES: CC(C)C[C@H]1NC(=O)[C@H](CCCN)NC(=O)[C@H](C(C)C)NC(=O)[C@H](Cc2ccc(-c3ccccc3)cc2)NC(=O)[C@H](C(C)C)NC(=O)[C@H](Cc2c[nH]c3ccccc23)NC(=O)[C@H](CC(=O)O)NC(=O)[C@H](Cc2ccc(OCC(=O)O)cc2)NC(=O)[C@H](CCCCNC(=N)N)NC(=O)CSC[C@@H](C(=O)N[C@@H](CCN)C(=O)NCCOCCOCC(=O)NCCCCCCCCCCC(=O)O)NC(=O)[C@H](CCCCN)NC(=O)[C@H](C(C)C)NC(=O)[C@H](CC2CCCCC2)NC(=O)[C@H](CC(N)=O)NC1=O [Compound 3217] ({CH2CO}-[hArg]Y(Carboxymethyl)DWV[Bip]V[Orn][dL]N[Cha]VKC[Dab][AEEA][Aun]-OH; thioether N-14)

IC50: 17.4 nM
SMILES: CC(C)C[C@H]1NC(=O)[C@H](CCCN)NC(=O)[C@H](C(C)C)NC(=O)[C@H](Cc2ccc(-c3ccccc3)cc2)NC(=O)[C@H](C(C)C)NC(=O)[C@H](Cc2c[nH]c3ccccc23)NC(=O)[C@H](CC(=O)O)NC(=O)[C@H](Cc2ccc(OCC(=O)O)cc2)NC(=O)[C@H](Cc2ccncc2)NC(=O)CSC[C@@H](C(=O)NCC(=O)NCCOCCOCC(=O)N[C@@H](CCCN)C(=O)NCCCCCCCCCCC(=O)O)NC(=O)[C@H](CCCN)NC(=O)[C@H](C(C)C)NC(=O)[C@H](CC2CCCCC2)NC(=O)[C@H](CC(N)=O)NC1=O [Compound 3207] ({CH2CO}-[4Pal]Y(Carboxymethyl)DWV[Bip]V[Orn][dL]N[Cha]V[Orn]CG[AEEA][Orn][Aun]-OH; thioether N-14)

IC50: 17.1 nM
SMILES: CC(C)C[C@H]1NC(=O)[C@H](CN)NC(=O)[C@H](C(C)C)NC(=O)[C@H](Cc2ccc(-c3ccccc3)cc2)NC(=O)[C@H](C(C)C)NC(=O)[C@H](Cc2c[nH]c3ccccc23)NC(=O)[C@H](CC(=O)O)NC(=O)[C@H](Cc2ccc(OCC(=O)O)cc2)NC(=O)[C@H](Cc2ccsc2)NC(=O)CSC[C@@H](C(=O)NCCOCCOCC(=O)N[C@@H](CCCN)C(=O)NCCCCCCCCCCC(=O)O)NC(=O)[C@H](C(C)O)NC(=O)[C@H](C(C)C)NC(=O)[C@H](CC2CCCCC2)NC(=O)[C@H](CCN)NC1=O (stereo partly drawn) [Compound 3209] ({CH2CO}-[3Thi]Y(Carboxymethyl)DWV[Bip]V[Dap][dL][Dab][Cha]V[Thr(3ξ)]C[AEEA][Orn][Aun]-OH; thioether N-14)
